Experimental data taken from patent US5087631A, “Oxathi(SIV)azol-5-one compounds” (Glaxo Inc., priority 1990, dated 1992).

What follows are compounds tested on thoracic aortas (assay: Aorta Vasodilation Assay (relaxation of phenylephrine-contracted, endothelium-removed rat thoracic aorta rings)). Details: 20% O2, without methylene blue, endothelium-removed rings contracted with phenylephrine (1×10^-7 M), SOD 100 U/mL, cumulative addition, read-out: IC50 (relaxation induced by test compound, vasodilation assay).
Set-up: species or system male Sprague-Dawley rats
Protocol: The thoracic aortas removed from euthanized male Sprague-Dawley rats (200-300 g) are cleaned of adherent connective tissue and cut into rings 3 to 5 mm in length. Endothelium is removed by rolling the rings on moist filter paper. […] Tissues are mounted to isometric force displacement transducers and responses are recorded on a polygraph.
All rings are gradually stretched (over a 120 min. period) to a basal resting tension of 2 g, which is maintained throughout the assay. During the basal tension adjustment period, the rings are exposed to KCl (40 mM) two to three times to verify tissue contractility. During this period, the effectiveness of endothelium removal is confirmed by the absence of the characteristic relaxation seen with acetylcholine (1×10^-6 M) in endothelium-intact (but not endothelium-removed) rings contracted with phenylephrine (1×10^-7 M).
Phenylephrine (1×10^-7 M) is then added and the rings are allowed to obtain a stable contractile response after which time, SOD (100 U/mL) is added to the tissues. The test compound is then added in a cumulative fashion. After the stabilization of the response to the last concentration of the test compound, sodium nitroprusside (1×10^-4 M) is added to induce complete relaxation.

In order of rising IC50:
1. COc1ccc(-c2[s+]noc2[O-])cc1 [4-methoxyphenyl, 4-(4-methoxyphenyl)-5H-1,3,2-oxathi(SIV)azol-5-one]  1.3 µM
2. [O-]c1on[s+]c1-c1ccccc1 [phenyl, 4-phenyl-5H-1,3,2-oxathi(SIV)azol-5-one]  2.3 µM
3. O=[N+]([O-])c1ccc(-c2[s+]noc2[O-])cc1 [4-nitrophenyl, 4-(4-nitrophenyl)-5H-1,3,2-oxathi(SIV)azol-5-one]  16 µM
4. Cc1[s+]noc1[O-] [methyl, 4-Methyl-5H-1,3,2-oxathi(SIV)azol-5-one]  20 µM
